Measurements from US20260285849A1, “METHYLOPHIOPOGONONE A DERIVATIVE, AND PREPARATION AND USE THEREOF” (INSTITUTE OF MATERIA MEDICA, CHINESE ACADEMY OF MEDICAL …, priority 2022, published 2026).
Read-outs that look alike come from different tables or passages of the source.

What was measured:
Type in all cases: in vivo
[1] = test system: mice with hypertensive heart disease induced by angiotensin II (AngII); design: unit not given here
Method: After male C57BL/6 mice were acclimated to the environment, they were randomly divided into 10 groups, namely the blank control group, the AngII model group, the AngII+telmisartan 10 mg/kg positive control group, the AngII+spironolactone 20 mg/kg positive control group, the AngII+Formula I (0.1, 0.5, 2 mg/kg) groups, and the AngII+Formula II (0.1, 0.5, 2 mg/kg) groups. The mice in the drug administration groups were intragastrically administered the corresponding doses of Formula I and Formula II compounds once a day at the same time. The mice in the positive control groups were intragastrically administered the corresponding doses of telmisartan and spironolactone once a day. The mice in the blank control group and the model group were given the same amount of solvent (0.5% CMC-Na solution). The administration volume was 10 mL/kg, and the administration was continuous for 14 days. From the 1st to the 13th day of drug administration, AngII modeling was carried out. The mice in the blank control group were subcutaneously injected with normal saline, and the mice in the other groups were subcutaneously injected with 1.44 mg/kg of AngII (modeling was carried out 2 h after drug administration), for a total of 13 times. […] Three mice were randomly selected from each group. The mice were placed in a fixator to expose the tail. The fixator was placed on a heating pad to maintain the normal body temperature of the mice. The root of the tail was passed through a pressurized tail cuff and fixed. Inflation and pressurization were started, and a measuring instrument was used to measure the systolic blood pressure (SBP). The blood pressure index of each animal was continuously measured 5 times, and the average value was taken.

[2] = test system: mice with hypertensive heart disease induced by angiotensin II (AngII); test: AngII-induced hypertensive heart disease mouse model: serum TNF-α (ELISA)
Method: (§1) After male C57BL/6 mice were acclimated to the environment, they were randomly divided into 10 groups, namely the blank control group, the AngII model group, the AngII+telmisartan 10 mg/kg positive control group, the AngII+spironolactone 20 mg/kg positive control group, the AngII+Formula I (0.1, 0.5, 2 mg/kg) groups, and the AngII+Formula II (0.1, 0.5, 2 mg/kg) groups. The mice in the drug administration groups were intragastrically administered the corresponding doses of Formula I and Formula II compounds once a day at the same time. The mice in the positive control groups were intragastrically administered the corresponding doses of telmisartan and spironolactone once a day. The mice in the blank control group and the model group were given the same amount of solvent (0.5% CMC-Na solution). The administration volume was 10 mL/kg, and the administration was continuous for 14 days. From the 1st to the 13th day of drug administration, AngII modeling was carried out. The mice in the blank control group were subcutaneously injected with normal saline, and the mice in the other groups were subcutaneously injected with 1.44 mg/kg of AngII (modeling was carried out 2 h after drug administration), for a total of 13 times. Detection of serum inflammatory factors: After the experiment, the animals were sacrificed by enucleation to obtain blood. The blood was left to stand at room temperature for 2 hours, and then centrifuged at 3500 rpm for 20 minutes to separate the serum. The content of serum TNF-α was determined according to the instructions of the ELISA kit.

[3] = test system: mice with hypertensive heart disease induced by angiotensin II (AngII); test: AngII-induced hypertensive heart disease mouse model: serum aldosterone (ALD) (ELISA)
Method: as §1, with “aldosterone (ALD) level:” for “inflammatory factors:”, “ALD” for “TNF-α”

[4] = test system: mice with hypertensive heart disease induced by angiotensin II (AngII); test: AngII-induced hypertensive heart disease mouse model: serum cAMP (ELISA)
Method: as §1, with “CAMP level:” for “inflammatory factors:”, “cAMP” for “TNF-α”

[5] = 0 d (before administration), 0.1 mg/kg group
[6] = 0 d (before administration), 0.5 mg/kg group
[7] = 0 d (before administration), 2 mg/kg group
[8] = 7 d, 0.1 mg/kg intragastric once a day, AngII 1.44 mg/kg s.c.
[9] = 7 d, 0.5 mg/kg intragastric once a day, AngII 1.44 mg/kg s.c.
[10] = 7 d, 2 mg/kg intragastric once a day, AngII 1.44 mg/kg s.c.
[11] = 14 d, 0.1 mg/kg intragastric once a day, AngII 1.44 mg/kg s.c.
[12] = 14 d, 0.5 mg/kg intragastric once a day, AngII 1.44 mg/kg s.c.
[13] = 14 d, 2 mg/kg intragastric once a day, AngII 1.44 mg/kg s.c.
[14] = 0.1 mg/kg intragastric once a day 14 days
[15] = 0.5 mg/kg intragastric once a day 14 days
[16] = 2 mg/kg intragastric once a day 14 days
[17] = 20 mg/kg intragastric once a day 14 days
[18] = 10 mg/kg intragastric once a day 14 days

Compound	SBP [1, 5]	SBP [1, 6]	SBP [1, 7]	SBP [1, 8]	SBP [1, 9]	SBP [1, 10]	SBP [1, 11]	SBP [1, 12]	SBP [1, 13]	TNF-α [2, 14] [ng/L]	TNF-α [2, 15] [ng/L]	TNF-α [2, 16] [ng/L]	ALD [3, 14] [pg/mL]	ALD [3, 15] [pg/mL]	ALD [3, 16] [pg/mL]	cAMP [4, 14] [nmol/L]	cAMP [4, 15] [nmol/L]	cAMP [4, 16]	also measured
Cc1c(O)cc(O)c2c(=O)c(Cc3ccc4c(c3)OCO4)coc12 [Formula II, 3-(benzo[d][1,3]dioxol-5-ylmethyl)-5,7-dihydroxy-8-methyl-4H-chromen-4-one]	100.30 ± 7.37	102.43 ± 8.41	101.27 ± 12.13	105.73 ± 6.00	106.07 ± 1.22	110.93 ± 5.78	110.13 ± 3.51	113.93 ± 3.51	108.27 ± 7.29	645.36 ± 87.50	671.09 ± 80.55	627.56 ± 98.89	186.44 ± 21.59	177.28 ± 21.57	185.89 ± 12.61	24.81 ± 1.63	26.38 ± 1.81	24.42 ± 2.07 nmol/L	
O=c1c(Cc2ccc3c(c2)OCO3)coc2cc(O)cc(O)c12 [Formula I]	102.13 ± 4.30	109.70 ± 5.67	104.93 ± 9.21	121.33 ± 3.19	109.80 ± 4.50	107.73 ± 6.53	107.60 ± 9.81	105.13 ± 7.10	109.20 ± 5.19	706.64 ± 91.15	699.02 ± 55.58	634.24 ± 98.58	206.80 ± 16.10	192.69 ± 14.38	199.41 ± 31.27	27.73 ± 3.03	27.42 ± 1.12	29.04 ± 5.17 ^ nmol/L	
CC(=O)S[C@@H]1CC2=CC(=O)CC[C@]2(C)[C@H]2CC[C@@]3(C)[C@@H](CC[C@@]34CCC(=O)O4)[C@H]12 [Spironolactone, reference compound]																			SBP ([1]; 0 d (before administration), 20 mg/kg group): 106.13 ± 0.81; SBP ([1]; 7 d, 20 mg/kg intragastric once a day, AngII 1.44 mg/kg s.c.): 109.73 ± 6.81; SBP ([1]; 14 d, 20 mg/kg intragastric once a day, AngII 1.44 mg/kg s.c.): 109.70 ± 4.20; TNF-α [2, 17]: 758.49 ± 72.35 ng/L; ALD [3, 17]: 209.03 ± 25.11 pg/mL; cAMP [4, 17]: 29.34 ± 3.04 ^ nmol/L
CCCc1nc2c(C)cc(-c3nc4ccccc4n3C)cc2n1Cc1ccc(-c2ccccc2C(=O)O)cc1 [Telmisartan, reference compound]																			SBP ([1]; 0 d (before administration), 10 mg/kg group): 104.13 ± 3.56; SBP ([1]; 7 d, 10 mg/kg intragastric once a day, AngII 1.44 mg/kg s.c.): 91.20 ± 6.35^###&; SBP ([1]; 14 d, 10 mg/kg intragastric once a day, AngII 1.44 mg/kg s.c.): 100.47 ± 7.68; TNF-α [2, 18]: 616.87 ± 70.42 ng/L; ALD [3, 18]: 162.74 ± 7.38 pg/mL; cAMP [4, 18]: 25.18 ± 1.10 nmol/L
